Measured values reported in ChEMBL document CHEMBL4414609, “High-Affinity Alkynyl Bisubstrate Inhibitors of Nicotinamide N-Methyltransferase (NNMT)” (J Med Chem, 2019).

Assays:
[1] = target: T1, HNMT (histamine N-methyltransferase) (Homo sapiens, UniProt P50135); test: Inhibition of human HNMT expressed in Escherichia coli at 1 uM assessed as reduction in SAH level using histamine as substrate in presence of SAM incubated for 15 mins by LC-MS/MS analysis relative to control; settings: recombinant human HNMT expressed in Escherichia coli, probe histamine
T1 sequence (P50135 whole entry): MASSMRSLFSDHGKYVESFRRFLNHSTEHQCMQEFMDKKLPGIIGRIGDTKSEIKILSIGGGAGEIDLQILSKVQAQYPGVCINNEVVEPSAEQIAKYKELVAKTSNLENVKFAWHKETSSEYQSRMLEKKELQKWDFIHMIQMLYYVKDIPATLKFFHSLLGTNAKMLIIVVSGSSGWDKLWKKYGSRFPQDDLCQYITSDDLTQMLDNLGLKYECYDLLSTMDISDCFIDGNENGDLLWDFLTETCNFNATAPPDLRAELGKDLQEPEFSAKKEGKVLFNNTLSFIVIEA

[2] = target: T2, Nicotinamide N-methyltransferase (Homo sapiens, UniProt P40261); test: Inhibition of N-terminal His6-tagged wild type human NNMT expressed in Escherichia coli NiCo21(DE3) assessed as reduction in 1-methylquinolinium level using quinoline as substrate in presence of SAM and measured every 27 seconds for 5.5 mins by fluorescence-based assay
T2 sequence (P40261 whole entry): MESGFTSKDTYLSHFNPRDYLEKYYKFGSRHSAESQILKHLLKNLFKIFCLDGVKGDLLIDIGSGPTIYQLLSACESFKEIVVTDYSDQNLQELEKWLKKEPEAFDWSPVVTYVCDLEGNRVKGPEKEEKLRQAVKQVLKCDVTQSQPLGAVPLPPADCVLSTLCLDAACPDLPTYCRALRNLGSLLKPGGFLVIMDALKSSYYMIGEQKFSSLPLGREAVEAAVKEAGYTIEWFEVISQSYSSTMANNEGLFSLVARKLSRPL

[3] = target: DNA (cytosine-5)-methyltransferase 3A (Homo sapiens, UniProt Q9Y6K1); test: Inhibition of human DNMT3a expressed in insect sf9 cells assessed as reduction in methylated poly(dI-dC)-Poly(dI-dC) level using poly(dI-dC)-poly(dI-dC) as substrate in presence of [3H] SAM incubated for 10 mins by scintillation counting
Chain of DNA (cytosine-5)-methyltransferase 3A (Q9Y6K1 whole entry, looked up): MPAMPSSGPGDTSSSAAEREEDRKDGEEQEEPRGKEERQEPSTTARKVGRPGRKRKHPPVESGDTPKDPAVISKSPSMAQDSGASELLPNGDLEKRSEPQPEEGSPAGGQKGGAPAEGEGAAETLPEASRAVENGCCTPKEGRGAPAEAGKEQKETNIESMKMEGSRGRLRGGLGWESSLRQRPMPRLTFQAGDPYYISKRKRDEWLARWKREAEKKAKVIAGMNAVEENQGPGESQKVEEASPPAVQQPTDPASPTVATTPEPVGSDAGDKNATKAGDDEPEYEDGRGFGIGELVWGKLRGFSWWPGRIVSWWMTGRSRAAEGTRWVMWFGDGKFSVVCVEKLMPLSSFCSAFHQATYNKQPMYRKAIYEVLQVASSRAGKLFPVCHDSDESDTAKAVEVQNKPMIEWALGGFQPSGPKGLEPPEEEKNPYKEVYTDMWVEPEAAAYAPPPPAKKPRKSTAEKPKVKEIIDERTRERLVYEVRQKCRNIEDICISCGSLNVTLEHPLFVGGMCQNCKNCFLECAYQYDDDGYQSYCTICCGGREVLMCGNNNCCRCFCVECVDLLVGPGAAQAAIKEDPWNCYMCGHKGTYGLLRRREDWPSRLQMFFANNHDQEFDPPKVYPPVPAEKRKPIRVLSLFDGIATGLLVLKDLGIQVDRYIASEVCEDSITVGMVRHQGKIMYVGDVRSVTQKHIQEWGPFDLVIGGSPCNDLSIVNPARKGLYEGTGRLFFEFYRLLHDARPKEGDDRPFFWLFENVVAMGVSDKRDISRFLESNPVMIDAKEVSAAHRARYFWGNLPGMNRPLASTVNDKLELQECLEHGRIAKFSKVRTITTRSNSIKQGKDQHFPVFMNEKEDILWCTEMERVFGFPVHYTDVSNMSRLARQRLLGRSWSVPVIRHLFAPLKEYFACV

[4] = target: T3, GNMT (glycine N-methyltransferase) (Homo sapiens, UniProt Q14749); test: Inhibition of human GNMT expressed in Escherichia coli at 10 uM assessed as reduction in SAH level using glycine as substrate in presence of SAM incubated for 30 mins by LC-MS/MS analysis relative to control; settings: recombinant human GNMT expressed in Escherichia coli, probe glycine
T3 sequence (Q14749 whole entry): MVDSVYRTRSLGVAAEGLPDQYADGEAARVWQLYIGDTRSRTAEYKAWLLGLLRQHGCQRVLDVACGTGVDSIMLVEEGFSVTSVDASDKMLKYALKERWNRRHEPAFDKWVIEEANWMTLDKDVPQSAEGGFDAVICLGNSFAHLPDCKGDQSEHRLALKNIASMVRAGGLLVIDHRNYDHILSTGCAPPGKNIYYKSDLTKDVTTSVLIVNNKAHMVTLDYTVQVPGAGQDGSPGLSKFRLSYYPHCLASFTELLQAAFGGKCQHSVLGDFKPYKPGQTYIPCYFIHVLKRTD

[5] = target: T4, INMT (indolethylamine N-methyltransferase) (Homo sapiens, UniProt O95050); test: Inhibition of wild type human INMT expressed in Escherichia coli at 1 uM using tryptamine as substrate in presence of SAM incubated for 30 mins by MTase-Glo assay relative to control; settings: probe tryptamine
T4 sequence (O95050 whole entry): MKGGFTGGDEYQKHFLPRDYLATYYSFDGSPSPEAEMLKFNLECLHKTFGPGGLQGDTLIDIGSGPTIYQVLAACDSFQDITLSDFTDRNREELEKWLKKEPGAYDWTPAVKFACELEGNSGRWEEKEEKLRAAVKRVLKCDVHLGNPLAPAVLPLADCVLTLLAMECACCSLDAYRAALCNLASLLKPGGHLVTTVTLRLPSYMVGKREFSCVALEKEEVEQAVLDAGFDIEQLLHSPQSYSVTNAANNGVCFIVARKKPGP

[6] = target: T5, COMT (catechol O-methyltransferase) (Homo sapiens, UniProt P21964); test: Inhibition of human COMT expressed in Escherichia coli at 10 uM assessed as reduction in SAH level using pyrocatechol as substrate in presence of SAM incubated for 15 mins by LC-MS/MS analysis relative to control; settings: recombinant human COMT expressed in Escherichia coli, probe pyrocatechol
T5 sequence (P21964 whole entry): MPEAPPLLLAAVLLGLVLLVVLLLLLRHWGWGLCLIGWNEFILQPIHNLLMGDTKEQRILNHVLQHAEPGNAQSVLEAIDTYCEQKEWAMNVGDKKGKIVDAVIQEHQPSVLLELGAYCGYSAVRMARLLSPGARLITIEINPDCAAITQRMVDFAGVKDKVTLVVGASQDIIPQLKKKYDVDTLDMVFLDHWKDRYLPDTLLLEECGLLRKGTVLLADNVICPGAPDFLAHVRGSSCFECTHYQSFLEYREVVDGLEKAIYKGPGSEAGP

[7] = target: T4, INMT (indolethylamine N-methyltransferase); test: Inhibition of wild type human INMT expressed in Escherichia coli at 10 uM using tryptamine as substrate in presence of SAM incubated for 30 mins by MTase-Glo assay relative to control; settings: probe tryptamine
[8] = target: T6, TPMT (thiopurine S-methyltransferase) (Homo sapiens, UniProt P51580); test: Inhibition of human TPMT expressed in Escherichia coli assessed as reduction in SAH level at 10 uM using 6-mercaptopurine as substrate in presence of SAM incubated for 30 mins by LC-MS/MS analysis relative to control; settings: recombinant human TPMT expressed in Escherichia coli, probe 6-mercaptopurine
T6 sequence (P51580 whole entry): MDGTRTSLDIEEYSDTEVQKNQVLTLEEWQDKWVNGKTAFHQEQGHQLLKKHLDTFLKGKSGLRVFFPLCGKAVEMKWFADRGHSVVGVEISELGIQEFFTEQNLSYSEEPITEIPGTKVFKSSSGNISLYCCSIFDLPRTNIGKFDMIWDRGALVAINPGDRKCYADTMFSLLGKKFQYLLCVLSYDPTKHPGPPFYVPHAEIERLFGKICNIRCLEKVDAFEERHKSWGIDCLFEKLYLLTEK

[9] = target: T7, GAMT (guanidinoacetate N-methyltransferase) (Homo sapiens, UniProt Q14353); test: Inhibition of human GAMT expressed in Escherichia coli at 10 uM assessed as reduction in SAH level using guanidineacetic acid as substrate in presence of SAM incubated for 30 mins by LC-MS/MS analysis relative to control; settings: recombinant human GAMT expressed in Escherichia coli, probe guanidineacetic acid
[10] = target: T3, GNMT (glycine N-methyltransferase); test: Inhibition of human GNMT expressed in Escherichia coli at 1 uM assessed as reduction in SAH level using glycine as substrate in presence of SAM incubated for 30 mins by LC-MS/MS analysis relative to control; settings: recombinant human GNMT expressed in Escherichia coli, probe glycine
[11] = target: T8, Thiopurine S-methyltransferase (Homo sapiens, UniProt P51580); test: Inhibition of human TPMT expressed in Escherichia coli assessed as reduction in SAH level using 6-mercaptopurine as substrate in presence of SAM incubated for 30 mins by LC-MS/MS analysis
T8 sequence (P51580 whole entry): T6 sequence (P51580 whole entry)

[12] = target: T1, HNMT (histamine N-methyltransferase); test: Inhibition of human HNMT expressed in Escherichia coli at 10 uM assessed as reduction in SAH level using histamine as substrate in presence of SAM incubated for 15 mins by LC-MS/MS analysis relative to control; settings: recombinant human HNMT expressed in Escherichia coli, probe histamine
[13] = target: Protein arginine N-methyltransferase 1 (Homo sapiens, UniProt Q99873); test: Inhibition of human PRMT1 expressed in Escherichia coli assessed as reduction in methylated histone H4 full length level using histone H4 full length as substrate in presence of [3H] SAM incubated for 20 mins by scintillation counting
Chain of Protein arginine N-methyltransferase 1 (Q99873 whole entry): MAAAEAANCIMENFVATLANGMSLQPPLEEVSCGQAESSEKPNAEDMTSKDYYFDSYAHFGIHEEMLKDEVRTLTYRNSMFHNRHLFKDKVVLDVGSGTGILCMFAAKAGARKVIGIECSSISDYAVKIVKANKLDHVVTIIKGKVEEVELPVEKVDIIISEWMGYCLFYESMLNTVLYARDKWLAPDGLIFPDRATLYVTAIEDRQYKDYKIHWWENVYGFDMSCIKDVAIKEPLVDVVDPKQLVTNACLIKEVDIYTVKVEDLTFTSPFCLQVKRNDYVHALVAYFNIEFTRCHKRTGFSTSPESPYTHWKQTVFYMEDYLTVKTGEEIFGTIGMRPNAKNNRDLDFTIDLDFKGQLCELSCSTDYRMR

[14] = Permeability across apical to basolateral side in human Caco2 cells after 60 mins by HPLC-MS/MS analysis; assay type: ADME, cell-based; settings: caco-2, 1 h
[15] = target: T7, GAMT (guanidinoacetate N-methyltransferase); test: Inhibition of human GAMT expressed in Escherichia coli at 1 uM assessed as reduction in SAH level using guanidineacetic acid as substrate in presence of SAM incubated for 30 mins by LC-MS/MS analysis relative to control; settings: recombinant human GAMT expressed in Escherichia coli, probe guanidineacetic acid

NC(=O)c1cccc(C#C[C@@H](CC[C@H](N)C(=O)O)C[C@H]2O[C@@H](n3cnc4c(N)ncnc43)[C@H](O)[C@@H]2O)c1
inhibition at 0.25 h, 1 µM [1]: 6%
Ki ([2]; read-out: Ki): 0.5 nM
Ki ([2]; read-out: pKi (converted)): 0.501 nM
IC50 [3]: 7600 nM
inhibition at 0.5 h, 10 µM [4]: 23%
inhibition at 0.5 h, 1 µM [5]: 14%
inhibition at 0.25 h, 10 µM [6]: 43%
inhibition at 0.5 h, 10 µM [7]: 53%
inhibition at 0.5 h, 10 µM [8]: 76%
inhibition at 0.5 h, 10 µM [9]: 26%
inhibition at 0.5 h, 1 µM [10]: 4%
IC50 [11]: 1000 nM
inhibition at 0.25 h, 10 µM [12]: 2%
IC50 [13]: > 10000 nM
permeability [14]: Impermeable
inhibition at 0.5 h, 1 µM [15]: 0%
